# In patent publication US12465610B2, “Compounds and methods for the treatment of PKR-associated diseases” (Board of Regents, The University of Texas System, priority 2019, dated 2025):
# What was measured:
# PI4KIIIa = PI4KIIIa (Homo sapiens, UniProt P42356); test: ADP-Glo kinase assay, high-throughput enzymatic screening (Reaction Biology); format: biochemical
# PI3 Kg = PI3 Kg (Homo sapiens, UniProt P48736); test: as above; format: biochemical
# PIM3 = PIM3 (Homo sapiens, UniProt Q86V86); test: High-throughput enzymatic screening; format: biochemical
# PIM1 = PIM1 (Homo sapiens, UniProt P11309); test: High-throughput enzymatic screening; format: biochemical
# PIM1, sequence (P11309 whole entry): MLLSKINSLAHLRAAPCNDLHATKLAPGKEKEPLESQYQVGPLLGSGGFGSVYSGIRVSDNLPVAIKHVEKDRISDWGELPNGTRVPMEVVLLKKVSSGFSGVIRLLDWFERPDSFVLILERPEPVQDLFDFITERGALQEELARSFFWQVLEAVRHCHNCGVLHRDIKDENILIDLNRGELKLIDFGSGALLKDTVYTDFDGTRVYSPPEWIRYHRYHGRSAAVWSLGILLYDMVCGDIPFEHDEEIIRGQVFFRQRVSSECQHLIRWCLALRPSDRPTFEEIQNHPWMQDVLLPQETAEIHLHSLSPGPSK
# PI4K2A protein = test: Thermal shift assay (differential scanning fluorimetry); format: binding
# A549 = test: SRB cell viability assay; format: cell-based, human; conditions: 72 hours after treatment
# Protocol: (§1) The effects of Pac 1 and Pac 2 were next examined on PKR protein expression in HeLa cells using Western blot analysis. […] No reduction in normal cell viability was observed after treatment with Pac 1 or Pac 2 (FIGS. 5F and G). […] Because most of the cancer cell lines that were tested were more sensitive to Pac 1 than to Pac 2, Pac 1 was further investigated.
# (§2) Cell viability assays: For SRB assays, cells (2-8×10^3/well in 100 μL of culture medium) were seeded in 96-well flat-bottomed plates and treated the next day with compounds at the indicated concentrations. After the indicated treatments, cells were fixed with trichloroacetic acid. The protein was stained with SRB, and the optical density at 570 nm was determined. Relative cell viability was calculated by setting the viability rate of the control cells (exposed only to dimethyl sulfoxide) at 100% and comparing the viability of the treated cells with that of the controls. The experiments were performed at least three times for each cell line. The viability of leukemia cell lines was determined by using a 3-(4,5-dimethylthiazol-2-yl)-2,5-diphenyltetrazolium bromide assay.
# (§3) For the SRB assay, cells (2-8×10^3/well in 100 μL of culture medium) were seeded in 96-well flat-bottomed plates and treated the next day with compounds at the indicated concentrations. After treatment for the indicated times, cells were fixed with trichloroacetic acid. The cells were stained using SRB, and the optical density at 570 nm was determined. Relative cell viability was determined by setting the viability of the control cells (exposed only to dimethyl sulfoxide) at 100% and comparing their viability with that of the treated cells. The experiments were performed at least three times for each cell line.
# H1299 = test: SRB cell viability assay; format: cell-based, human; conditions: 72 hours after treatment
# Protocol: as §1, §2, §3
# breast cancer cell lines = test: SRB cell viability assay; format: cell-based, human; conditions: 72 hours after treatment
# Protocol: as §1, §2, §3
# LOVO colon cancer cells = test: SRB cell viability assay; format: cell-based, human; conditions: 72 hours after treatment
# Text: PKR and PI4K2A expression are associated with poor prognosis in cancer patients: PKR and PI4K2A are encoded by the EIF2AK2 and PI4K2A genes, respectively. […] It was also examined the expression of PKR using immunohistochemical staining of five normal skin and five breast tumor samples and observed that all of the breast tumor cells had high cytoplasmic PKR expression (FIG. 7C). However, all of the normal skin cells had low cytoplasmic PKR expression, and some of them had high nuclear PKR expression. […] Furthermore, the association between EIF2AK2 or PI4K2A gene expression and overall survival was evaluated in colorectal cancer patients using the TCGA data set. […]
# as §2, with “After the indicated treatments, cells were fixed with trichloroacetic acid.” left out, “The experiments were performed at least three times for each cell line.” left out, “assay. […]” for “assay.”
# leukemia cell lines = test: 3-(4,5-dimethylthiazol-2-yl)-2,5-diphenyltetrazolium bromide viability assay; format: cell-based
# Protocol: as §2
# PKR and p-PKR = test: Western blot of PKR and p-PKR protein expression; format: cell-based, human
# AP-1/2/3 complexes = test: Western blot of AP-1, AP-2 and AP-3 complex-associated proteins; format: cell-based, human; conditions: H1299 and MDA-MB-231 cells
# Text: Western blotting was next used to evaluate proteins known to be involved in AP-1/2/3 complexes in lung (H1299) and breast (MDA-MB-231) cancer cells after treatment with Pac 1 or Pac 2. […] AP-1 and AP-2 mediate protein sorting in the endosome, trans-Golgi network, and plasma membrane. […] The impact of Pac 1 was then investigated on lysosome function by staining cells with the acidophilic dye LysoTracker Red.
# [1] = tested on: lysosomes and MVBs/exosomes; test: Transmission electron microscopy (TEM) of treated cells; format: cell-based, human
# [2] = biological target: PKR coimmunoprecipitated with PI4K2A (Homo sapiens, UniProt Q9BTU6); format: cell-based
# PKR coimmunoprecipitated with PI4K2A, sequence (Q9BTU6 whole entry, looked up): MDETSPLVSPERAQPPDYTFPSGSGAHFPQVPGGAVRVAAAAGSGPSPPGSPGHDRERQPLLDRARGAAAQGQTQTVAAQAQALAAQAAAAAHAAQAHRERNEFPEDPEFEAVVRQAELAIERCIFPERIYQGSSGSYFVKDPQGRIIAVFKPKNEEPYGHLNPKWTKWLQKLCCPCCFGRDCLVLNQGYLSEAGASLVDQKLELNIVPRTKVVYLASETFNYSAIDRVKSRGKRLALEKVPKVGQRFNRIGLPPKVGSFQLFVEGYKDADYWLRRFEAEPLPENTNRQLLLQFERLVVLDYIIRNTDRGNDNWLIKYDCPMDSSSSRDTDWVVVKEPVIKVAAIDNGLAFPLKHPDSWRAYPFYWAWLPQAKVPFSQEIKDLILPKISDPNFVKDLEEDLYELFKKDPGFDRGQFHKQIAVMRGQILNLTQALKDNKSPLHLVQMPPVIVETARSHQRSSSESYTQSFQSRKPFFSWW
# [3] = tested on: p-4EBP1, eEF2K, GSK3ab, IRS1 and Caveolin; test: RPPA assay of 156 proteins; format: cell-based, human; conditions: H1299 and A549 cells, 72 hours; Pac 1 5 and 10 μM, Pac 2 10 μM
# Protocol: The translation regulator eukaryotic […] 4EBP1 is phosphorylated by and is a substrate of PIM3 and PIM1. To further determine whether treatment with Pac 1 affects PIM3/1 downstream targets, the expression of 156 proteins in H1299 and A549 cells was analyzed after treatment with Pac 1 or Pac 2 using an RPPA assay. […] Others reported cross-talk of PP2A with PKR and 4EBP1 protein in cancer cells.
# HeLa cells = test: Microscopic analysis of morphologic changes; format: cell-based, human
# Text: Anticancer effects of PKR-targeting compounds depend on PKR expression status: To identify compounds that can target lysosomes in PKR-positive cells or MVBs/exosomes in PKR-negative cells, the 10,000-compound ChemBridge library was screened for compounds with different effects on the growth of HeLa and HeLaPKRkd cells. […] SRB assays were next used to determine cell viability after treatment with Pac 1 or Pac 2.
# Identification of PKR-associated compounds and cytotoxicity studies: The library of 10,000 compounds was screened for those with different effects on the growth of HeLa and HeLaPKRkd cells. For this screening, both HeLa and HeLaPKRkd cells were seeded in 96-well plates in parallel and treated with each compound at a final concentration of 5 μg/mL. Cells treated with dimethyl sulfoxide (final concentration, 1%) were used as controls. Treated cells were observed under a microscope to detect morphologic changes, and their viability was determined using SRB assays 2 and 3 days after treatment. The compounds initially observed to have different effects on HeLa and HeLaPKRkd cells were subjected to two confirmatory screenings.
# PI4K2A kinase = PI4K2A kinase (Homo sapiens, UniProt Q9BTU6); test: ADP-Glo kinase assay, high-throughput enzymatic screening (Reaction Biology)
# PI4K2A kinase, sequence (Q9BTU6 whole entry): as the sequence (Q9BTU6 whole entry, looked up) above
# PI3 Kg, sequence (P48736 whole entry): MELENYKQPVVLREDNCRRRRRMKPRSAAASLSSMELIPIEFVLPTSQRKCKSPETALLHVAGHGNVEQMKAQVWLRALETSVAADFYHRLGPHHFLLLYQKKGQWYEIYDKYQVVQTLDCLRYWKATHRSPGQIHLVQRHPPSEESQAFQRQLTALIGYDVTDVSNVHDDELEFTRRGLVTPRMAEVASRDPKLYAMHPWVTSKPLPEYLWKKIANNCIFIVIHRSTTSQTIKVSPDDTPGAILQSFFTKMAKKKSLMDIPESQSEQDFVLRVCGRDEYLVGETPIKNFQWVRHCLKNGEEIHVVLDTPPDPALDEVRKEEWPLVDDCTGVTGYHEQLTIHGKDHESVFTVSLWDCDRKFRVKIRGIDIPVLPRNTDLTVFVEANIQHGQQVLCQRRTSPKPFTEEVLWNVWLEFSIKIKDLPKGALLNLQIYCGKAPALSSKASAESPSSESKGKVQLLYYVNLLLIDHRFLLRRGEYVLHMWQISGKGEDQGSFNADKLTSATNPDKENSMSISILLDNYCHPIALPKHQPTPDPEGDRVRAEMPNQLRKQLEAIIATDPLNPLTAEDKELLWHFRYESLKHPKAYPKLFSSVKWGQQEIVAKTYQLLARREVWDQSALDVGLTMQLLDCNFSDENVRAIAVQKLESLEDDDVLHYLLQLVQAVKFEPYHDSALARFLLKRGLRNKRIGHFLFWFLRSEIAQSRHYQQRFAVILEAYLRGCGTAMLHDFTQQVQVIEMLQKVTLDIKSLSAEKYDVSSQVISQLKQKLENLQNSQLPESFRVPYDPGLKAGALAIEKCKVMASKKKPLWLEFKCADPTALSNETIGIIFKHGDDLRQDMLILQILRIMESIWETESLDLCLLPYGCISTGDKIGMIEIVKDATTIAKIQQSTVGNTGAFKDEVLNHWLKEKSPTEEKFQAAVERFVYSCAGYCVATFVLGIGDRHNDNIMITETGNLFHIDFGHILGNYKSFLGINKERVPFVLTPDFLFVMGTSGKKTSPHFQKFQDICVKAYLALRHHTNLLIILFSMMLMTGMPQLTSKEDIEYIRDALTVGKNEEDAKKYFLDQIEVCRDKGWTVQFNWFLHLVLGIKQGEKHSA
# PI4KIIIa, sequence (P42356 whole entry): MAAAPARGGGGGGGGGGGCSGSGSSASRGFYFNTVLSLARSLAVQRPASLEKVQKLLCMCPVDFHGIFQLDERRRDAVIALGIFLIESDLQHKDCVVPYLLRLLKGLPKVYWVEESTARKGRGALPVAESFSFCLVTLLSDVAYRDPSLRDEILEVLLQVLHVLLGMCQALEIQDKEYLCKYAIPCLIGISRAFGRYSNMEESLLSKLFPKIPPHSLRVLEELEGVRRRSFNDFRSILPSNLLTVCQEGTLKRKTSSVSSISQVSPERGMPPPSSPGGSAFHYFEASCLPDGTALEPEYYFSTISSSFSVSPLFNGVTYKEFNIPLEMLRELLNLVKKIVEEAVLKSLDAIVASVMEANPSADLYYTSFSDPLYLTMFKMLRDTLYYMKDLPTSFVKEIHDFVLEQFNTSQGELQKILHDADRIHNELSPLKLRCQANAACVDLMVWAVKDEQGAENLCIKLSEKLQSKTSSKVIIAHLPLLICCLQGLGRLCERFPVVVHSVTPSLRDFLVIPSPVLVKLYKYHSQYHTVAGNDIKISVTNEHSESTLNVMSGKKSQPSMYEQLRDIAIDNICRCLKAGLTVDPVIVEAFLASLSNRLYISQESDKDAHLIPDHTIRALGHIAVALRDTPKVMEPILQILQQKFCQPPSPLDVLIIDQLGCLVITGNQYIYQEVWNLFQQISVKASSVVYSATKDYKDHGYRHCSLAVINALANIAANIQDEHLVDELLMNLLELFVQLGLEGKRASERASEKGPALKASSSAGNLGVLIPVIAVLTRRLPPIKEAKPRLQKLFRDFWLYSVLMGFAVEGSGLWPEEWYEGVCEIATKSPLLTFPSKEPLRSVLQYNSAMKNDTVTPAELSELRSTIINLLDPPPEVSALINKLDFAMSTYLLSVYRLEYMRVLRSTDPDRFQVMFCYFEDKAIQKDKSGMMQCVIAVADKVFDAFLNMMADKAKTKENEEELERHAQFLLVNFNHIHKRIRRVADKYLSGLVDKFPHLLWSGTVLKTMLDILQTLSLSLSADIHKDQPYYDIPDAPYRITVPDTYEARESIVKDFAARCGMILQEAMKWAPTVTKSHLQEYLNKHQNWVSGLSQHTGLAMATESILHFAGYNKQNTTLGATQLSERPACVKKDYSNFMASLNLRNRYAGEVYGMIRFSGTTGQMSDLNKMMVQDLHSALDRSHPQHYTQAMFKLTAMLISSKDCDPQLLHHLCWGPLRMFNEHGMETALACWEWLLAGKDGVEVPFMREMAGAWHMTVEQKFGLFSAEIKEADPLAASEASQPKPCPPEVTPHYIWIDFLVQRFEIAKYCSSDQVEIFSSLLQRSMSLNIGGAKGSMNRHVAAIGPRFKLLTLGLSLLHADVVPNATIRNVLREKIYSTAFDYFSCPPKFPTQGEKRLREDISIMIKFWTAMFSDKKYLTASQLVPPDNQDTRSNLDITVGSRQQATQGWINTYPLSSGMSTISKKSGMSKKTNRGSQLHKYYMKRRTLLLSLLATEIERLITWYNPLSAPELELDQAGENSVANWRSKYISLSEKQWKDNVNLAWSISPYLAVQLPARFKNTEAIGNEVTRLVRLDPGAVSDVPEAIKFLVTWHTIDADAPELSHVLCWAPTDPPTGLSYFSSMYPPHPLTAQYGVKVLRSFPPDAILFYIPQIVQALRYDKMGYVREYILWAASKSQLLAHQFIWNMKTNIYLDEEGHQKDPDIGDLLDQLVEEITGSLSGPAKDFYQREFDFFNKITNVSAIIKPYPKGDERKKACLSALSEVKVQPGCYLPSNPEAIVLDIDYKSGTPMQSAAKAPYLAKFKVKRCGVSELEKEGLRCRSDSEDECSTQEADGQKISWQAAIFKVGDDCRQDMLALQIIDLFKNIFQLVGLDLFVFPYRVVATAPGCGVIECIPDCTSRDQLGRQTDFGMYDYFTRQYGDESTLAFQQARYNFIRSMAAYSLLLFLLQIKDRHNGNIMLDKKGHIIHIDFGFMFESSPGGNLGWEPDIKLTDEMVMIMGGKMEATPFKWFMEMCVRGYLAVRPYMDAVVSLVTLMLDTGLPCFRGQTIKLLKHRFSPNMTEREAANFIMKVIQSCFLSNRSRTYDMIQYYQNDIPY
structure (smiles),measurement,setting,value
"O=C(N/N=C\c1c(O)ccc2ccccc12)c1cccc2cc[nH]c12 [Pac 1, N′—[(Z)-(2-Hydroxy-1-naphthyl)methylene]-1H-indole-7-carbohydrazide]",inhibition of kinase activity,PI4KIIIa,not other kinases
same,inhibition of kinase activity,PI3 Kg,not other kinases
same,inhibition of PIM3/1 activity,PIM3,markedly inhibited
same,inhibition of PIM3/1 activity,PIM1,markedly inhibited
same,binding to PI4K2A and change of melting temperature,PI4K2A protein,binds to PI4K2A and causes a decrease in the melting temperature
same,sensitivity (viability) of A549 cells,A549,more sensitive to treatment with Pac 1 than that with Pac 2
same,sensitivity (viability) of H1299 cells,H1299,more sensitive to treatment with Pac 1 than that with Pac 2
same,growth of breast cancer cell lines,breast cancer cell lines,inhibited the growth
same,growth of LOVO colon cancer cells,LOVO colon cancer cells,inhibited the growth
same,growth of leukemia cell lines,leukemia cell lines,growth inhibition
same,PKR and p-PKR expression,"PKR and p-PKR; A549 and H1299 cells, 5 μM, 72 hours",markedly reduced
same,expression of PKR and p-PKR,"PKR and p-PKR; HeLa cells, 72 hours after treatment",significantly reduced
same,"PKR, p-PKR, and PI4K2A expression","PKR and p-PKR; LOVO colon cancer cells, 72 hours, various doses","reduced PKR, p-PKR, and PI4K2A expression"
same,PKR expression,"PKR and p-PKR; breast cancer cell lines, 72 hours, various doses",reduced PKR expression
same,"PI4K2A, Lamp1, Lamp2, and AP-3δ expression","AP-1/2/3 complexes; 5 μM, 72 hours",significantly inhibited
same,"expression of proteins associated with AP-1 (Rab7α, HSC70, AP-1γ) or AP-2 (AP-2α)",AP-1/2/3 complexes; 72 hours after treatment,No reduction of expression
same,lysosomes by TEM,"[1]; HeLa cells, 5 μM",destruction of lysosomes
same,lysosomes and MVBs/exosomes by TEM,[1]; HeLaPKRkd cells,a lack of lysosomes but enrichment of MVBs/exosomes
same,amount of PKR coimmunoprecipitated with PI4K2A,[2],decreased to undetectable levels
same,"levels of p-4EBP1 (S65, T37, and T70), eEF2K, GSK3ab, IRS1 and Caveolin",[3],significantly inhibited
same,growth of HeLa cells by microscopy,HeLa cells,suppressed the growth of HeLa cells more effectively than did treatment with Pac 2
same,IC50,PI4K2A kinase,2.5 µM
